The values that follow come from ChEMBL document CHEMBL1128822, “Synthesis and biological evaluation of 2,3-diarylthiophenes as selective Cox-2 and Cox-1 inhibitors” (Bioorg Med Chem Lett, 1995).

In assay [1] the target is T1, Prostaglandin G/H synthase 2 (Homo sapiens, UniProt P35354).
T1 sequence (P35354 whole entry): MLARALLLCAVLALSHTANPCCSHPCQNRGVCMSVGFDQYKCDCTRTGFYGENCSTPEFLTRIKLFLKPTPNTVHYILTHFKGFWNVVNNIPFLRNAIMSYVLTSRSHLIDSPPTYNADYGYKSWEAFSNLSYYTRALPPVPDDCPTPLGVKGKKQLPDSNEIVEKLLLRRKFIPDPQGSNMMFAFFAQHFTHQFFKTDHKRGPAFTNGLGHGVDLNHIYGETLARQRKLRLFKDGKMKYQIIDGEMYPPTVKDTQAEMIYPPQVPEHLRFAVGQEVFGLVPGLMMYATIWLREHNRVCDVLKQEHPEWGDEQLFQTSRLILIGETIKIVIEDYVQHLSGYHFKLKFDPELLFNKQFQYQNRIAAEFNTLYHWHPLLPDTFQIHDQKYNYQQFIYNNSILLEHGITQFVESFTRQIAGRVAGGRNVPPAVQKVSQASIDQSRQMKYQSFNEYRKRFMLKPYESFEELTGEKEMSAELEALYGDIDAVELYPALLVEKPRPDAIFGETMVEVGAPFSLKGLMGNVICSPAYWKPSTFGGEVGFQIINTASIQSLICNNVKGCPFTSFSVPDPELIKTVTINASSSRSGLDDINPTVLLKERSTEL
Description: Inhibitory activity against human COX-2 expressed in baculovirus infected Sf9 cells. The assay is classed as cell-based.

The target of assay [2] is Prostaglandin G/H synthase 1 (Homo sapiens, UniProt P23219). As to the kind of experiment: Inhibitory activity against human COX-1 expressed in baculovirus infected Sf9 cells.
Sequence of Prostaglandin G/H synthase 1 (P23219 whole entry): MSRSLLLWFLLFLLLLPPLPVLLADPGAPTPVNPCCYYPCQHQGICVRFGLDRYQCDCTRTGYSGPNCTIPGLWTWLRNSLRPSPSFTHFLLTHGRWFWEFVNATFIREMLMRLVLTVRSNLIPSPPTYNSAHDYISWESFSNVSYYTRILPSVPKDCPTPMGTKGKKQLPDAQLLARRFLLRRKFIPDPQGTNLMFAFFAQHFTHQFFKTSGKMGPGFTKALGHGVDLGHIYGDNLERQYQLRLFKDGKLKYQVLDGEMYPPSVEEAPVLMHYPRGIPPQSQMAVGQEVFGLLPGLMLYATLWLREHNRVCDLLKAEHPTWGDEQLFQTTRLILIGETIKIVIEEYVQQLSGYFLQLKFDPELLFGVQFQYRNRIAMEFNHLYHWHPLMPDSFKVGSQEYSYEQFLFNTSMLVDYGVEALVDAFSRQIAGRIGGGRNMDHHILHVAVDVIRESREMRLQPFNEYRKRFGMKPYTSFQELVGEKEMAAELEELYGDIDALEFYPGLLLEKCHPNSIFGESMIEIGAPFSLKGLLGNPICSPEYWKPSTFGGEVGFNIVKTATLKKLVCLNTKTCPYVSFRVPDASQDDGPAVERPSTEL

Usually IC50 stands for the midpoint of a concentration-inhibition curve. Read a low IC50 as inhibition by little substance. For `CNS(=O)(=O)c1ccc(-c2ccsc2-c2ccc(F)cc2)cc1`, the figures for the IC50 in assay [1] and in assay [2] were 7200 nM and > 50000 nM, respectively.
On the same counts, the results for `CC(C)(O)c1cc(-c2ccc(S(N)(=O)=O)cc2)c(-c2ccc(F)cc2)s1` are 410 nM and 5400 nM.
On the same counts, the results for `O=Cc1ccc(-c2ccsc2-c2ccc(F)cc2)cc1` are > 30000 nM and 980 nM.
On the same counts, the results for `N#Cc1ccc(-c2ccsc2-c2ccc(F)cc2)cc1` are > 30000 nM and 210 nM.
With `OCc1ccc(-c2ccsc2-c2ccc(F)cc2)cc1`, the concentration for half-maximal inhibition (IC50) in assay [1] is > 30000 nM; in assay [2], 350 nM.
In the case of `COC(=O)c1cc(-c2ccc(F)cc2)c(-c2ccc(S(N)(=O)=O)cc2)s1`, the IC50 is > 30000 nM in assay [1] and > 50000 nM in assay [2].
On the same counts, the results for `C[Se](=O)(=O)c1ccc(-c2ccsc2-c2ccc(F)cc2)cc1` are 550 nM and 32000 nM.
On the same counts, the results for `CCS(=O)(=O)c1ccc(-c2ccsc2-c2ccc(F)cc2)cc1` are > 30000 nM and > 50000 nM.
On the same counts, the results for `CC(=O)NS(=O)(=O)c1ccc(-c2ccsc2-c2ccc(F)cc2)cc1` are 5400 nM and > 50000 nM.
As to `CSc1ccc(-c2ccsc2-c2ccc(F)cc2)cc1`, the IC50 was > 30000 nM in assay [1] and 340 nM in assay [2].
On the same counts, the results for `O=C(O)c1ccc(-c2ccsc2-c2ccc(F)cc2)cc1` are > 30000 nM and > 50000 nM.
On the same counts, the results for `C[S+]([O-])c1ccc(-c2ccsc2-c2ccc(F)cc2)cc1` (configuration not stated) are > 30000 nM and 15000 nM.
With `CC(C)(O)c1cc(-c2ccc(F)cc2)c(-c2ccc(S(N)(=O)=O)cc2)s1`, the IC50 was 1600 nM in assay [1] and > 50000 nM in assay [2].
On the same counts, the results for `NS(=O)(=O)c1ccc(-c2sccc2-c2ccc(F)cc2)cc1` are 670 nM and 2700 nM.
On the same counts, the results for `CS(=O)(=O)c1ccc(-c2sccc2-c2ccc(F)cc2)cc1` are 4300 nM and > 50000 nM.
On the same counts, the results for `COC(=O)c1ccc(-c2ccsc2-c2ccc(F)cc2)cc1` are > 30000 nM and 17000 nM.
Regarding `CC(C)c1cc(-c2ccc(S(N)(=O)=O)cc2)c(-c2ccc(F)cc2)s1`, the IC50 in assay [1] worked out at 10 nM; in assay [2], 230 nM.
On the same counts, the results for `CC(=O)c1ccc(-c2ccsc2-c2ccc(F)cc2)cc1` are > 30000 nM and 750 nM.
On the same counts, the results for `CS(=O)(=O)c1ccc(-c2ccsc2-c2ccc(F)cc2)cc1` are 250 nM and > 100000 nM.
Consider `O=C(O)Cc1ccc(-c2ccsc2-c2ccc(F)cc2)cc1`, for which the IC50 in assay [1] is > 30000 nM.
`COC(=O)c1cc(-c2ccc(S(N)(=O)=O)cc2)c(-c2ccc(F)cc2)s1`: the IC50 in assay [1] was 70 nM; in assay [2] it was 1000 nM.
On the same counts, the results for `CS(=O)(=O)c1ccc(-c2sc(Br)cc2-c2ccc(F)cc2)cc1` are 20 nM and 1100 nM.
On the same counts, the results for `NC(=O)c1ccc(-c2ccsc2-c2ccc(F)cc2)cc1` are > 30000 nM and 3200 nM.
On the same counts, the results for `NS(=O)(=O)c1ccc(-c2ccsc2-c2ccc(F)cc2)cc1` are 30 nM and 1300 nM.
